# Laboratory results taken from patent publication US12605335B2, “Triptolide lignocerate, liposome thereof and preparation method therefor” (SHANGHAI WEI ER BIOPHARMACEUTICAL TECHNOLOGY CO., LTD., priority 2022, dated 2026).
# Where two headings read alike, the source gives them in different places.
# Experiments:
# [1] = test system: ear vein; test: Vascular irritation evaluation, rabbit ear vein; format: in vivo; settings: rabbits, ear vein 0.22 mg/kg (based on TP), daily for three days, histology 48 hours after last administration
# Procedure: […] (weighing 1.5-2.0 kg) were randomly divided into 6 groups. Each group received intravenous injection via the right ear vein of either saline solution, TP-LA liposomes prepared according to Examples 35, 42, and 53, TP (DMSO) solution, or Minnelide solution, at a dose of 0.22 mg/kg (calculated based on TP), administered at a rate of 1 mL/min. Simultaneously, saline of equal volume was administered via the left ear vein as a control. This procedure was repeated daily for three consecutive days.
# During each day of administration, the animals' behavior and pathological changes at the injection site were observed macroscopically. Euthanasia was performed 48 hours after the last administration. Tissue samples were collected approximately 2.0 cm towards the central end from the injection site on the ear vein, fixed in 10% paraformaldehyd solution, dehydrated using an ethanol gradient, embedded in paraffin, and sectioned into slices stained with hematoxylin and […]. All samples were examined using a BX43-DP21 light microscope (Olympus Corporation, Japan), and pathological changes were assessed.
# [2] = test system: Panc 02 pancreatic cancer model; test: In vivo antitumor effect, Panc 02 pancreatic cancer model (Example 55); set-up: species or system mouse; settings: ICR mice, 4 doses
# Procedure: Panc 02 pancreatic cancer cells were cultured in DMEM medium at 37° C. with 5% CO2. Cells were passaged every two days during logarithmic growth phase until reaching a concentration of 1×10^7 cells/mL. Under sterile conditions, Panc 02 cells were subcutaneously implanted into the right axilla of ICR mice to establish the pancreatic cancer model. Once the tumor volume grew to 100-300 mm^3, mice were randomly divided into 6 groups of 6 animals each. Groups included blank control group, TP (DMSO) solution group, Minnelide solution group, and TP-LA liposome dose groups. Drugs were administered via tail vein injection at a dose of 0.6 mg/kg (based on TP) every other day for a total of 4 doses. On the third day after the last administration, mice were euthanized. Body weights were recorded, tumors were excised and weighed, and tumor inhibition rates were calculated.
# [formula] 3. Antitumor Effects
# [3] = test system: advanced solid tumors; settings: patients with advanced solid tumors, intravenous once a week; cited from earlier work
# [4] = Log P determination by shake-flask; format: physicochemical
# Procedure: The log P was determined by shake-flask. First, a certain amount of water and n-octanol are added into the funnel, shaken and separated to obtain water-saturated n-octanol solution and n-octanol saturated aqueous solution; quantify and accurately weigh triptolide and its derivatives in a volumetric bottle containing water-saturated n-octanol solution, and dissolve by ultrasound, drop water-saturated n-octanol solution, dilute and volume. Take 0.5 mL of this solution in a 5 mL volumetric flask, dilute with MeOH and volume. The concentration of triptolide and its derivatives was determined by the assay method; take the above solution to the Xilin bottle, add 10 times the amount of n-octanol saturated aqueous solution, and shake in a bath of 37° C. and 75 rpm for one day, so that triptolide and its derivatives reach equilibrium state in aqueous and organic phase. The n-octanol phase was transferred into a centrifuge tube, centrifuged at 3000 rpm for 10 min, precision measuring n-octanol phase in a volumetric flask, diluted 10 times with MeOH solution, and measured the content of triptolide and its derivatives in n-octanol phase. Drug concentration in the aqueous phase=total drug concentration-drug concentration in the n-octanol phase.
# [formula] 3. The Content Determination Method of Triptolide and Its Derivatives in This Embodiment is Determined by High-Performance Liquid Chromatography (2020 Edition, Chinese Pharmacopoeia's Fourth Part Rule 0512), as Follows: • Chromatographic conditions: using chromatographic column: Agilent ZORBAX Eclipse Plus C18 column (4.6 mm×250 mm, 5 μm), mobile phase: 100% MeOH, column temperature: 30° C., flow rate: 1.0 mL/min, sample input: 20 μL, detection wavelength: 218 nm. • Preparation of control solution: accurately weighing triptolide and its derivatives 10 mg, placed in a 10 mL volumetric flask, dissolved with methanol and diluted to the scale line, shake well, as the control reserve solution. • Preparation of standard curve: Reserve solutions of different volumes of control were diluted to produce series solutions with mass concentrations of 5.00, 10.00, 25.00, 50.00, 100.00, 250.00, and 500.00 μg/mL, respectively. 20 μL of each sample was injected into the HPLC system and analyzed according to the “Chromatographic Conditions”. With the concentration C (μg/mL) as the abscissa and the peak area A as the ordinate, the linear regression is obtained. • Assay: accurately absorb 1 mL of each sample solution of triptolide and its derivatives to a 5 mL volumetric flask, dilute with methanol to the scale line, and vortex-mix evenly. 20 μL was injected into the HPLC chromatogram, recorded and calculated by the peak area according to the standard curve method. 4. Experimental Results
# [5] = Pharmacokinetic study in rats; settings: male, Sprague-Dawley (SD), rat, in vivo, iv, 0.6 mg/kg
# Procedure: Rat tail vein dose of equimolar TP 0.6 mg/kg, blood collection time point set at 6 min, 12 min, 18 min, 30 min, 48 min, 1 h, 1.5 h, 2 h, 2.5 h, 3 h, 5 h, 12 h, 24 h, 72 h, 5 SD rats from each group (♂).
# Sample processing and analysis method: take plasma with 4 times the amount of methanol to precipitate protein, centrifugation at 12000 r/min for 10 min; remove the supernatant to remove methanol, extract the remaining residue with 400 μL methyl-t-butyl ether twice, centrifugation at 12000 r/min for 10 min. The organic extraction phase was collected, concentrated and dried, 100 μL of methanol was added for redissolution, and the supernatant was centrifuged into the LC-MS/MS system to calculate the plasma concentration by using DAS 2.0 software.
# [6] = CN106946975A; cited from earlier work
# [7] = test system: tumor; settings: Huang 2020; cited from earlier work
# [8] = in vivo; triptolide released via in vivo conversion of the liposomes, or triptolide itself; cited from earlier work
# [9] = test system: Panc 02 pancreatic cancer model; test: In vivo antitumor effect, Panc 02 pancreatic cancer model (Example 5); set-up: species or system mouse; settings: ICR mice, tail vein 0.6 mg/kg (per TP) every two days, 4 doses
# Procedure: Mouse pancreatic cancer Panc02 cells were cultured in DMEM medium at 37° C., 5% CO2 and passaged on average every two days. During the log growth phase, the cell concentration was adjusted to 1×10^7/mL, and Panc 02 cells were subcutaneously seeded in the right axilla of ICR mice under sterile conditions to establish a mouse pancreatic cancer model. When the mouse tumor volume was grown to 100-300 mm^3, the mice were randomly divided into 6 groups according to the tumor volume, with 6 mice in each group. The blank, TP (DMSO), TP-SA, TP-EA, TP-BA, and TP-LA were set. The mouse tail vein injection was 0.6 mg/kg (per TP), and the blank group was given 0.2 mL saline every two days for a total of 4 doses. The mice were killed on the third day of drug withdrawal, the mice were weighed, the tumor body was dissected and weighed, and the tumor suppression rate was calculated.
# [formula] 3. Anti-Tumor Effect
# [10] = tail vein 0.6 mg/kg (based on TP) every other day
# [11] = shake-flask, n-octanol/water, 37° C., read-out: log P
structure (smiles),measurement,setting,value
CC(C)[C@]12O[C@H]1[C@@H]1O[C@]13[C@]1(O[C@H]1C[C@H]1C4=C(CC[C@@]13C)C(=O)OC4)[C@@H]2OCOP(=O)(O)O [Minnelide],"vascular irritation, pathological changes of ear vein",[1],congestion and some instances of bleeding
same,Body weight change,[2]; [10],1.09%
same,Mean tumor weight,[2]; [10],0.222 ± 0.029 g
same,Tumor inhibition rate,[2]; [10],68.19%
same,tail vein irritation after administration,[2]; tail vein 0.6 mg/kg (based on TP),varying degrees of tail swelling and ulceration
CC(C)[C@]12O[C@H]1[C@@H]1O[C@]13[C@]1(O[C@H]1C[C@H]1C4=C(CC[C@@]13C)C(=O)OC4)[C@@H]2OC(=O)CCC(=O)[O-].[Na+] [PG490-88Na],"grade of most frequently reported adverse reactions (anemia, malaise, nausea, vomiting, diarrhea, constipation)",[3],1-2
same,interindividual variability in pharmacokinetic properties,[3],2- to 3 fold
"CCCCCCCCCCCCCCCCCCCCCC(=O)O[C@@H]1[C@@]2(C(C)C)OC2[C@@H]2O[C@]23[C@]12O[C@H]2CC1C2=C(CC[C@@]13C)C(=O)OC2 (stereo partly shown) [Triptolide behenate, triptolide behenate]",logP at 1 day,[4]; [11],2.78 ± 0.04
"CCCCCCCCCCCCCCCCCCCCCCCC(=O)O[C@@H]1[C@@]2(C(C)C)OC2[C@@H]2O[C@]23[C@]12O[C@H]2CC1C2=C(CC[C@@]13C)C(=O)OC2 (stereo partly shown) [Triptolide lignocerate, triptolide lignocerate]",logP at 1 day,[4]; [11],3.12 ± 0.03
"CCCCCCCCCCCCCCCCCC(=O)O[C@@H]1[C@@]2(C(C)C)OC2[C@@H]2O[C@]23[C@]12O[C@H]2CC1C2=C(CC[C@@]13C)C(=O)OC2 (stereo partly shown) [Triptolide stearate, triptolide stearate]",logP at 1 day,[4]; [11],2.41 ± 0.04
CC(C)[C@]12O[C@H]1[C@@H]1O[C@]13[C@]1(O[C@H]1C[C@H]1C4=C(CC[C@@]13C)C(=O)OC4)[C@@H]2O [Triptolide],AUC(0-inf),[5],0.337 ng·h/mL
same,Cmax,[5],0.698 ng/mL
same,MRT,[5],32.8 min
same,[formula] (half-life),[5],13.2 ± 2.4 min
same,liposomal encapsulation rate,[6],less than 50%
same,Tumor inhibition rate,[7],17.67%
same,logP at 1 day,[4],0.52 ± 0.01
same,biological half-life of triptolide,[8],15 min
same,Mean tumor weight,[2]; [10],0.417 ± 0.097 g
same,Tumor inhibition rate,[2]; [10],40.26%
same,Mean tumor weight,[9],0.517 ± 0.097 g
same,Tumor Suppression rate,[9],41.12%
